The values that follow come from US20260184702A1, “SYNTHESIS, PHARMACOLOGY AND USE OF NEW WATER-SOLUBLE AND SELECTIVE FMS-LIKE TYROSINE KINASE3 (FLT3) INHIBITORS” (Universität Regensburg, priority 2022, published 2026).

One data set addresses T1, human FLT3-ITD (Homo sapiens, UniProt P36888).
T1 sequence (P36888 1-993): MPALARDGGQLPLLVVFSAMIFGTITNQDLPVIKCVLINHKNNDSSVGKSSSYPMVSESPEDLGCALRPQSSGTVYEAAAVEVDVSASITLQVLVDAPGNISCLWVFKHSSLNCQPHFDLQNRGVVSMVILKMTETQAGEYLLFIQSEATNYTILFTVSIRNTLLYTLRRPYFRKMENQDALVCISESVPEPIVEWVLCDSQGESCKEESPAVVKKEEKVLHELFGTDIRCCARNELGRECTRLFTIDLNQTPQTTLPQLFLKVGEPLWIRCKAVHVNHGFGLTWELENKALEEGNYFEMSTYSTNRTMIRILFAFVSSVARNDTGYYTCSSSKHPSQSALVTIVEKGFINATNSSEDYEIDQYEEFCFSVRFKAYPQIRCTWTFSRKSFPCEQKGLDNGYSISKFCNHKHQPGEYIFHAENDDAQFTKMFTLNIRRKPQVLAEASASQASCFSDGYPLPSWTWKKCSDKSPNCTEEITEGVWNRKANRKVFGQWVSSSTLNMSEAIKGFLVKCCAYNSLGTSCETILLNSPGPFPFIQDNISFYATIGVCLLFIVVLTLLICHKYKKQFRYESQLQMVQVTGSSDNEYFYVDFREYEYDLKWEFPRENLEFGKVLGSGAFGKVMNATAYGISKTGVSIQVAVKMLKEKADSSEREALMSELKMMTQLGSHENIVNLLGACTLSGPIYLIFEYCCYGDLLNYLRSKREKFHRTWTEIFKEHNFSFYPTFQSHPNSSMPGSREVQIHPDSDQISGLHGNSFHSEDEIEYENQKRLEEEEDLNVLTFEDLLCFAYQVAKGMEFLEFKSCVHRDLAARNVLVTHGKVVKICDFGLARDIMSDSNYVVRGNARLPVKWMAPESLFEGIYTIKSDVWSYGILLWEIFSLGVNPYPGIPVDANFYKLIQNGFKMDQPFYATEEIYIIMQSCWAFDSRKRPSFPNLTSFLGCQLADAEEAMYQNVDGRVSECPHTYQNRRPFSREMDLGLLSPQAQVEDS
Description: Enzymatic kinase assay FLT3 (ITD), 10-dose IC50 mode (Reaction Biology). In kind it is biochemical.

For data set [1], the target named is T2, recombinant human FLT3 (D835Y) (Homo sapiens, UniProt P36888, D835Y).
T2 construct: purchased Reaction Biology
T2 sequence (P36888 27-993 D835Y): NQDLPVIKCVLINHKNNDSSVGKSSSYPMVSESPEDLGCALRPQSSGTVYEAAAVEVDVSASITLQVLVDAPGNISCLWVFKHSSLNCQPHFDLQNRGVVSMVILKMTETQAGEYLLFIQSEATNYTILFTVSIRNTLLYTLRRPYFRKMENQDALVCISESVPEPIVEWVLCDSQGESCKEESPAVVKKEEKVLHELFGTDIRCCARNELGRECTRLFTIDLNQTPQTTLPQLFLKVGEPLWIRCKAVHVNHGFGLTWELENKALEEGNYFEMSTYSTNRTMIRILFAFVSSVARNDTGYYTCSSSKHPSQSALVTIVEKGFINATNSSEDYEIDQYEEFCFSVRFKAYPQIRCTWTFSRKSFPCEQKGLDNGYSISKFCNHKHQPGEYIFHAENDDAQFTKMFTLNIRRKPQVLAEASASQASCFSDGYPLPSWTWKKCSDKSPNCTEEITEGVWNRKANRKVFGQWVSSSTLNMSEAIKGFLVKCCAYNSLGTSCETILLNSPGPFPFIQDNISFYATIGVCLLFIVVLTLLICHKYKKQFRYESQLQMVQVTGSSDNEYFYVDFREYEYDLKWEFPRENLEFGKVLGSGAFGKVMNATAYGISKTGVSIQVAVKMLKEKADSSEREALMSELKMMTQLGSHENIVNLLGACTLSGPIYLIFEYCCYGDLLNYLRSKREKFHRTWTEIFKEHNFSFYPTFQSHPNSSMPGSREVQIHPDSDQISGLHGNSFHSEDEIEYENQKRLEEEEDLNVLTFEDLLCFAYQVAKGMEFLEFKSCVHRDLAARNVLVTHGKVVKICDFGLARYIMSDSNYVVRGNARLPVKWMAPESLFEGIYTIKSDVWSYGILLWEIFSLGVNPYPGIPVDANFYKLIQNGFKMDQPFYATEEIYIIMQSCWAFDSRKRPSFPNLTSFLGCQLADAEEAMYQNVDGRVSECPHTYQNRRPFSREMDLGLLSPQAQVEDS
Briefly: Enzymatic kinase assay FLT3 (D835Y), 10-dose IC50 mode (Reaction Biology). Format: biochemical. The conditions noted are these: 10 μM ATP; for IC50: IC50 FLT3 (D835Y) [nM]; for pIC50: read-out: IC50 FLT3 (D835Y).

Data set [2] concerns MV4-11 cells (FLT3-ITD positive). Briefly: Cell Titer-Glo proliferation assay with MV4-11 cells. The conditions noted are these: Homo sapiens, MV4-11, 72 h; for pIC50: read-out: IC50 MV4-11 cells. Format: cell-based. How it is done: MV4-11 cells are human acute myeloid leukemia cell lines that carry a FLT3-ITD mutation (American Type Culture Collection, ATCC, Manassas, VA, United States). Cells were cultured in IMDM medium plus 100 μg/mL penicillin, 100 μg/mL streptomycin and 10% FBS. All cells were kept at 37° C., 5% CO2.
Cell proliferation was assessed with Cell Titer-Glo® Viability Assay (Promega; Madison, WI, United States) according to the manufacturer's instructions.
For orientation: ATP-based viability assays read luminescence as a measure of living cells.

Data set [3] can be described thus: Solubility test by UV-Vis spectroscopy of saturated solutions. In kind it is physicochemical. The settings on record: saturated solution; for solubility: thermodynamic from solid. How it is done: All UV-Vis measurements were carried out with an Agilent Cary 60 UV-Vis 2.00 between 800-200 nm. The absorbance was measured with a scan rate of 300.0 nm/min, a data interval of 0.50 nm and an UV-Vis Average Time of 0.10 s. For all measurements a cuvette with 10 mm light path was used. A calibration curve was plotted from several different concentrations and the solubility of the respective compound was determined by measuring the absorbance of a diluted saturated solution. As a blank curve a mixture of ultrapure water and ethanol in a ratio of 1:1 or 5:95 was recorded. For the calibration curve a 100 μM or a 10 μM solution of the compound in an ultrapure water:ethanol (1:1) or (5:95)-mixture was prepared and diluted to obtain at least 6 concentrations. […] The supernatant was taken using a syringe and filtered through a syringe filter (RC Membrane). The saturated solution was diluted with ultrapure water and ethanol to obtain an appropriate concentration in a water:ethanol (1:1) or (5:95)-mixture. The long wave absorbance maximum was used for determination of the solubility (mean values, determination in triplicate). […] By plotting the concentration of the solution against the absorbance values at the previously determined wavelength maximum a calibration curve was obtained (FIG. 1B).

Experiment in data set [4]: as above
Format: physicochemical. The conditions noted are these: solvent DMSO.

The mark [5] stands for this setting: ultrapure water, water, ultrapure water, read-out: Solubility Water.
Where [6] appears, read: 10 μM ATP; read-out: IC50 FLT3 (ITD).
Setting [7] is: ethanol, organic solvent or mixture, ethanol, read-out: Solubility Ethanol.

SMILES strings stand for the structures. pIC50: −log10 of the molar value. In brackets after ≈: the same amount, converted by molar mass. Where two headings read alike, the source gives them in different places. Some results are limits rather than exact numbers.

The pIC50 is the negative decadic logarithm of the IC50, by convention in mol/L. A word on the IC50: it is the concentration that inhibits the measured activity by half. Consider `CC(C)(C)c1cc(NC(=O)Nc2ccc3oc(C(=O)c4cc5c(CN6CCOCC6)c(OC(=O)N6CCC(N7CCCCC7)CC6)ccc5[nH]4)cc3c2)no1` [Compound 38b, 2-(5-(3-(5-(tert-Butyl)isoxazol-3-yl)ureido)benzofuran-2-carbonyl)-4-(morpholinomethyl)-1H-indol-5-yl[1,4′-bipiperidine]-1′-carboxylate bis(2,2,2-trifluoroacetate)], for which the pIC50 at human FLT3-ITD (read-out: IC50 FLT3 (ITD); 10 μM ATP; bis(2,2,2-trifluoroacetate)) is 8.89. Besides, the values for the IC50 in data set [1] and in data set [2] (read-out: IC50 MV4-11 cells [nM]) were 6.63 nM and 0.38 nM, respectively.

What is called solubility is the dissolved amount per volume that the medium holds. Consider `CCN1CCN(Cc2c(O)ccc3[nH]c(C(=O)c4cc5cc(NC(=O)Nc6cc(C(C)(C)C)on6)ccc5o4)cc23)CC1` [Compound 69a, 1-(5-(tert-Butyl)isoxazol-3-yl)-3-(2-(4-((4-ethylpiperazin-1-yl)methyl)-5-hydroxy-1H-indole-2-carbonyl)benzofuran-5-yl)urea], for which the “Solubility Ethanol” value in data set [3] (ethanol) is 970 µg/mL (≈ 1660 µM). Further, in data set [3] (setting [5]), the solubility was under 100 µg/mL. For the same compound, the pIC50 at human FLT3-ITD (setting [6]) is 8.89; in data set [1], 8.37; in data set [2], 9.89. The “Solubility DMSO” value in data set [4] is listed as “Soluble”.

For `CC(C)N1CCN(Cc2c(O)ccc3[nH]c(C(=O)c4cc5cc(NC(=O)Nc6cc(C(C)(C)C)on6)ccc5o4)cc23)CC1` [Compound 70a, 1-(5-(tert-Butyl)isoxazol-3-yl)-3-(2-(5-hydroxy-4-((4-isopropylpiperazin-1-yl)methyl)-1H-indole-2-carbonyl)benzofuran-5-yl)urea], in data set [3] (setting [7]), the solubility worked out at 920 µg/mL (≈ 1540 µM). Moreover, the “Solubility Water” value in data set [3] (ultrapure water) was under 100 µg/mL. Besides, the pIC50 on human FLT3-ITD (setting [6]) is 8.70; in data set [1], 8.59; in data set [2], 9.51. Also, the “Solubility DMSO” value in data set [4] is “Soluble”.

As for `CC(C)(C)c1cc(NC(=O)Nc2ccc3oc(C(=O)c4cc5c(CN6CCNCC6)c(O)ccc5[nH]4)cc3c2)no1` [Compound 55b, 1-(5-(tert-Butyl)isoxazol-3-yl)-3-(2-(5-hydroxy-4-(piperazin-1-ylmethyl)-1H-indole-2-carbonyl)benzofuran-5-yl)urea bis(2,2,2-trifluoroacetate)], the results for the solubility in data set [3] (setting [7]) and in data set [3] (setting [5]) were 1140 µg/mL (≈ 2050 µM) and under 100 µg/mL, respectively. Further, the pIC50 at human FLT3-ITD (setting [6]) is 8.47; in data set [1], 8.02; in data set [2], 9.38. Besides, the “Solubility DMSO” value in data set [4] is “Soluble”.

As for `CN1CCN(Cc2c(OC(=O)N3CCC(N4CCCCC4)CC3)ccc3[nH]c(C(=O)c4cc5cc(NC(=O)Nc6cc(C(C)(C)C)on6)ccc5o4)cc23)CC1` [Compound 41a, 2-(5-(3-(5-(tert-Butyl)isoxazol-3-yl)ureido)benzofuran-2-carbonyl)-4-((4-methylpiperazin-1-yl)methyl)-1H-indol-5-yl [1,4′-bipiperidine]-1′-carboxylate], at human FLT3-ITD (read-out: IC50 FLT3 (ITD); 10 μM ATP), the pIC50 is 9.15. Besides, the IC50 in data set [1] turned out to be 2.46 nM.

In the case of `CN1CCN(Cc2c(O)ccc3[nH]c(C(=O)c4cc5cc(NC(=O)Nc6cc(C(C)(C)C)on6)ccc5o4)cc23)CC1` [Compound 33a, 1-(5-(tert-Butyl)isoxazol-3-yl)-3-(2-(5-hydroxy-4-((4-methylpiperazin-1-yl)methyl)-1H-indole-2-carbonyl)benzofuran-5-yl)urea], the solubility is 4670 µg/mL (≈ 8180 µM) in data set [3] (setting [7]) and under 100 µg/mL in data set [3] (setting [5]). In addition, the pIC50 on human FLT3-ITD (setting [6]) was 9.09; in data set [1], 8.42. In data set [4], the “Solubility DMSO” value is “Soluble”.

Take `C/C=C/C(=O)N1CCN(Cc2c(O)ccc3[nH]c(C(=O)c4cc5cc(NC(=O)Nc6cc(C(C)(C)C)on6)ccc5o4)cc23)CC1` [Compound 57a, 1-(2-(4-((4-(But-2-enoyl)piperazin-1-yl)methyl)-5-hydroxy-1H-indole-2-carbonyl)benzofuran-5-yl)-3-(5-(tert-butyl)isoxazole-3-yl)urea]: the pIC50 at human FLT3-ITD (setting [6]) was 8.36; in data set [2] it was 9.62.

As for `CC(C)(C)OC(=O)N1CCN(Cc2c(O)ccc3[nH]c(C(=O)c4cc5cc(NC(=O)Nc6cc(C(C)(C)C)on6)ccc5o4)cc23)CC1` [Compound 54a], the solubility in data set [3] (setting [7]) was 900 µg/mL (≈ 1370 µM); in data set [3] (setting [5]), under 100 µg/mL. For the same compound, the “Solubility DMSO” value in data set [4] is recorded as “Soluble”.
